Results published in ChEMBL document CHEMBL3414561, “Discovery of 4'-chloromethyl-2'-deoxy-3',5'-di-O-isobutyryl-2'-fluorocytidine (ALS-8176), a first-in-class RSV polymerase inhibitor for treatment of human respiratory syncytial virus infection” (J Med Chem, 2015).
Calls of active or inactive are those of the source. The rule behind the calls is not given here.

How the values were obtained:
[1] = tested on: Respiratory syncytial virus; experiment: Inhibition of Respiratory syncytial virus RNA polymerase in crude RSV RNP complex assessed as inhibition of [33P]CMP incorporation into RNA chain at 10 uM
Homo sapiens [2] = species on record: Homo sapiens; experiment: Inhibition of human DNA-dependent DNA polymerase alpha using calf thymus DNA/[3H]dTTP as substrate by microplate scintillation reader; conditions: concentration not given here
[3] = molecular target: DNA polymerase beta (Homo sapiens) (UniProt P06746); experiment: Inhibition of human DNA-dependent DNA polymerase beta using calf thymus DNA/[3H]dTTP as substrate by microplate scintillation reader; conditions: concentration not given here
Homo sapiens [4] = species on record: Homo sapiens; experiment: Inhibition of human DNA-dependent DNA polymerase gamma using calf thymus DNA/[3H]dTTP as substrate by microplate scintillation reader; conditions: concentration not given here
Homo sapiens [5] = species on record: Homo sapiens; experiment: Inhibition of human DNA-directed RNA polymerase 2 using cytomegalovirus DNA fragment as substrate; conditions: concentration not given here
[6] = molecular target: DNA-directed RNA polymerase, mitochondrial (Homo sapiens) (UniProt O00411); experiment: Inhibition of human mitochondrial RNA polymerase assessed as 13-mer product using [33P]RNA/DNA primer/templates used by […] gel electrophoresis
Sequence of DNA-directed RNA polymerase, mitochondrial (Homo sapiens) (O00411 whole entry): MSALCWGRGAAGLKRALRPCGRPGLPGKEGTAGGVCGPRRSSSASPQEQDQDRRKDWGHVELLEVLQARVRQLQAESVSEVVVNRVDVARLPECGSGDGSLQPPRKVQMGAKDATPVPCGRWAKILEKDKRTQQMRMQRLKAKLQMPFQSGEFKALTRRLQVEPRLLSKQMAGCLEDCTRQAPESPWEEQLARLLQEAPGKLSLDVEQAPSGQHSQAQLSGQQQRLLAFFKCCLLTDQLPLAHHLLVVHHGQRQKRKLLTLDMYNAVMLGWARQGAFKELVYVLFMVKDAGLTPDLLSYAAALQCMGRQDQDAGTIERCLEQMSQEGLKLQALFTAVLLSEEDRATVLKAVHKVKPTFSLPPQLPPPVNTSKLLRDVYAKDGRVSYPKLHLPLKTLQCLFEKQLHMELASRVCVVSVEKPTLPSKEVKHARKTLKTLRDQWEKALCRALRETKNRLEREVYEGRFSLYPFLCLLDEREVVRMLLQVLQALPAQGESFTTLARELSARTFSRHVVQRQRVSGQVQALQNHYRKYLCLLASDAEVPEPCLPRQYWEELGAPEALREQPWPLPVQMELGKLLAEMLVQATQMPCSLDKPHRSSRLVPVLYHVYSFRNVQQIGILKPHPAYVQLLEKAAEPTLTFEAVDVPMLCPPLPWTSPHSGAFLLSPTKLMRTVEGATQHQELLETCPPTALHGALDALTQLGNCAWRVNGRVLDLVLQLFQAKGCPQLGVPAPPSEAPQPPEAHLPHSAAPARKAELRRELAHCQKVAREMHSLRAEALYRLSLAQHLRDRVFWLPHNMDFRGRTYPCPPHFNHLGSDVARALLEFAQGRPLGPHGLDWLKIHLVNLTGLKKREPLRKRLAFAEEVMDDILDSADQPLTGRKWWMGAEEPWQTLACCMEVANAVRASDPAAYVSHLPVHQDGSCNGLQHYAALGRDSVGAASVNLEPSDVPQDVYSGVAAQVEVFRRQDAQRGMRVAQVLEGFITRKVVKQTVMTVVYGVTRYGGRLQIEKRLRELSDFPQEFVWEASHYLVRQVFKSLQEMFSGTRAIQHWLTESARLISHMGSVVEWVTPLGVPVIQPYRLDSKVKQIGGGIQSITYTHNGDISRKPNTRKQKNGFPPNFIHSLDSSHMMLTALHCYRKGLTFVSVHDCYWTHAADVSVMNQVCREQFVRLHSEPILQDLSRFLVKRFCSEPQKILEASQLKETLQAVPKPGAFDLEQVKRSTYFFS

[7] = molecular target: DNA-directed RNA polymerase, mitochondrial (Homo sapiens) (UniProt O00411); experiment: Binding affinity to human mitochondrial RNA polymerase assessed as compound incorporation using [33P]RNA/DNA primer/templates used by […] gel electrophoresis
[8] = Inhibition of Respiratory syncytial virus RNA polymerase in crude RSV RNP complex assessed as inhibition of [33P]CMP incorporation into RNA chain
[9] = tested on: Respiratory syncytial virus; experiment: Antiviral activity against Respiratory syncytial virus subgenomic replicon system in 395 HeLa cells assessed as reduction in viral replication after 7 days by renilla luciferase assay; assay type: functional, organism-based; conditions: human respiratory syncytial virus, 168 h
[10] = Cytotoxicity against human HeLa cells assessed as cell viability by CellTiter-Glo luminescent assay; assay type: cell-based
A549 = experiment: Drug metabolism in human A549 cells assessed as nucleotide 5'-triphosphate level measured per million cells at 50 uM after 1 to 5 days by LC/MS/MS analysis; assay type: ADME, cell-based; conditions: a549, 50 µM
[11] = Drug metabolism in human Hep2 cells assessed as nucleotide 5'-triphosphate level measured per million cells at 50 uM after 1 to 5 days by LC/MS/MS analysis; assay type: ADME, cell-based; conditions: hep-2, 50 µM
[12] = Drug metabolism in human normal bronchial epithelial cells assessed as nucleotide 5'-triphosphate level measured per million cells at 50 uM after 1 to 5 days by LC/MS/MS analysis; assay type: ADME, cell-based; conditions: epithelial cell
[13] = Drug metabolism in human nasal cells assessed as nucleotide 5'-triphosphate level measured per million cells at 50 uM after 1 to 5 days by LC/MS/MS analysis; assay type: ADME, cell-based
[14] = Half life in male syrian golden hamster at 5 mg/kg, iv; assay type: ADME, organism-based, Mesocricetus auratus; set-up: dose 5 mg/kg, route intravenous; conditions: in vivo
[15] = Clearance in male syrian golden hamster at 5 mg/kg, iv; assay type: ADME, organism-based, Mesocricetus auratus; set-up: dose 5 mg/kg, route intravenous; conditions: in vivo
[16] = Volume of distribution at steady state in male syrian golden hamster at 5 mg/kg, iv; assay type: ADME, organism-based, Mesocricetus auratus; set-up: dose 5 mg/kg, route intravenous; conditions: in vivo, read-out: Vdss
[17] = AUCinf in male syrian golden hamster at 5 mg/kg, iv; assay type: ADME, organism-based, Mesocricetus auratus; set-up: time infinity, dose 5 mg/kg, route intravenous; conditions: plasma
Syrian golden hamster = experiment: Ratio of uridine metabolite to parent cytidine in male syrian golden hamster at 5 mg/kg, iv; assay type: ADME, organism-based, Mesocricetus auratus; set-up: dose 5 mg/kg, route intravenous; conditions: in vivo
[18] = Drug uptake in male syrian golden hamster assessed as lung NMP level at 5 mg/kg, iv after 1 hr; assay type: ADME, organism-based, Mesocricetus auratus; set-up: dose 5 mg/kg, route intravenous; conditions: in vivo, read-out: Drug uptake
[19] = Drug uptake in male syrian golden hamster assessed as lung NTP level at 5 mg/kg, iv after 1 hr; assay type: ADME, organism-based, Mesocricetus auratus; set-up: dose 5 mg/kg, route intravenous; conditions: in vivo, read-out: Drug uptake
[20] = Half life in Sprague-Dawley rat at 5 mg/kg, iv; assay type: ADME, organism-based; set-up: dose 5 mg/kg, route intravenous; conditions: in vivo
[21] = Clearance in Sprague-Dawley rat at 5 mg/kg, iv; assay type: ADME, organism-based; set-up: dose 5 mg/kg, route intravenous; conditions: in vivo
[22] = Volume of distribution at steady state in Sprague-Dawley rat at 5 mg/kg, iv; assay type: ADME, organism-based; set-up: dose 5 mg/kg, route intravenous; conditions: in vivo, read-out: Vdss
[23] = AUCinf in Sprague-Dawley rat at 5 mg/kg, iv; assay type: ADME, organism-based; set-up: time infinity, dose 5 mg/kg, route intravenous; conditions: plasma
[24] = Half life in Non-naive cynomolgus monkey at 5 mg/kg, iv; assay type: ADME, organism-based, Macaca fascicularis; set-up: dose 5 mg/kg, route intravenous; conditions: in vivo
[25] = Clearance in Non-naive cynomolgus monkey at 5 mg/kg, iv; assay type: ADME, organism-based, Macaca fascicularis; set-up: dose 5 mg/kg, route intravenous; conditions: in vivo
[26] = Volume of distribution at steady state in Non-naive cynomolgus monkey at 5 mg/kg, iv; assay type: ADME, organism-based, Macaca fascicularis; set-up: dose 5 mg/kg, route intravenous; conditions: in vivo, read-out: Vdss
[27] = AUCinf in Non-naive cynomolgus monkey at 5 mg/kg, iv; assay type: ADME, organism-based, Macaca fascicularis; set-up: time infinity, dose 5 mg/kg, route intravenous; conditions: plasma
Cynomolgus monkey = experiment: Ratio of uridine metabolite to parent cytidine in Non-naive cynomolgus monkey at 5 mg/kg, iv; assay type: ADME, organism-based, Macaca fascicularis; set-up: dose 5 mg/kg, route intravenous; conditions: in vivo
[28] = Drug uptake in Non-naive cynomolgus monkey assessed as lung NMP level at 5 mg/kg, iv after 1 hr; assay type: ADME, organism-based, Macaca fascicularis; set-up: dose 5 mg/kg, route intravenous; conditions: in vivo, read-out: Drug uptake
[29] = Drug uptake in Non-naive cynomolgus monkey assessed as lung NTP level at 5 mg/kg, iv after 1 hr; assay type: ADME, organism-based, Macaca fascicularis; set-up: dose 5 mg/kg, route intravenous; conditions: in vivo, read-out: Drug uptake
[30] = Drug uptake in Non-naive cynomolgus monkey assessed as lung NMP level at 5 mg/kg, po 4'-chloromethyl-2'-deoxy-2'-fluorocytidine equivalent dose after 12 hrs; assay type: ADME, organism-based, Macaca fascicularis; set-up: dose 5 mg/kg, route oral; conditions: in vivo, read-out: Drug uptake
[31] = Drug uptake in Non-naive cynomolgus monkey assessed as lung NTP level at 5 mg/kg, po 4'-chloromethyl-2'-deoxy-2'-fluorocytidine equivalent dose after 12 hrs; assay type: ADME, organism-based, Macaca fascicularis; set-up: dose 5 mg/kg, route oral; conditions: in vivo, read-out: Drug uptake
[32] = tested on: Respiratory syncytial virus; experiment: Inhibition of Respiratory syncytial virus RNA polymerase in crude RSV RNP complex assessed as inhibition of [33P]CMP incorporation into RNA chain at 30 uM

Structure (SMILES)	EC50 [9] [nM]	CC50 [10] [nM]	Drug metabolism (A549) [pmol]	Drug metabolism [11] [pmol]	Drug metabolism [12] [pmol]	Drug metabolism [13] [pmol]	half-life [20] [h]	clearance [21] [mL/min/kg]	Vd [22] [L/kg]	AUC(0-inf) [23] [ng·h/mL]	half-life [24] [h]	clearance [25] [mL/min/kg]	Vd [26] [L/kg]	AUC(0-inf) [27] [ng·h/mL]	Ratio (Cynomolgus monkey)	concentration [28] [nM]	concentration [29] [nM]	concentration [30] [nM]	concentration [31] [nM]	further results
Nc1ccn([C@@H]2O[C@](CCl)(COP(=O)(O)OP(=O)(O)OP(=O)(O)O)[C@@H](O)C2(F)F)c(=O)n1																				inhibition [1]: 38%
Nc1ccn([C@@H]2O[C@](CF)(COP(=O)(O)OP(=O)(O)OP(=O)(O)O)[C@@H](O)[C@H]2F)c(=O)n1																				inhibition (Homo sapiens [2]): < 50%; inhibition [3]: < 50%; inhibition (Homo sapiens [4]): < 50%; inhibition (Homo sapiens [5]): < 50%; inhibition [6]: Active; Activity [7]: Active; IC50 [8]: 120 nM
Nc1ccn([C@@H]2O[C@@](CO)(CCl)[C@@H](O)[C@H]2F)c(=O)n1 [ALS-8112]	150	> 100000	137	94.7	581	185	6.01	31.8	4.1	2670	5.44	28	3	2980	0.48	9920	4060	254	185	half-life [14]: 3.98 h; clearance [15]: 28.6 mL/min/kg; Vd [16]: 2.3 L/kg; AUC(0-inf) [17]: 3230 ng·h/mL; Ratio (Syrian golden hamster): 0.025; concentration [18]: 287 nM; concentration [19]: 70.9 nM
CC[C@]1(CO)O[C@@H](n2ccc(N)nc2=O)[C@H](F)[C@@H]1O	420	> 100000	85.1	119	489	140	1.34	25.5	1.67	3140	7.52	19.2	1.8	4360	0.67	3310	3070			half-life [14]: 1.23 h; clearance [15]: 34.1 mL/min/kg; Vd [16]: 1.07 L/kg; AUC(0-inf) [17]: 2460 ng·h/mL; Ratio (Syrian golden hamster): 0.0005; concentration [18]: 144 nM; concentration [19]: 42.2 nM
CC(C)[C@H](N)C(=O)O[C@H]1[C@@H](F)[C@H](n2ccc(N)nc2=O)O[C@@]1(CO)CCl	60	> 100000																861	915	
CC(C)C(=O)OC[C@@]1(CCl)O[C@@H](n2ccc(N)nc2=O)[C@H](F)[C@@H]1OC(=O)C(C)C [LUMICITABINE]	260	> 100000																679	1480	
Nc1ccn([C@@H]2O[C@](CCl)(COP(=O)(O)OP(=O)(O)OP(=O)(O)O)[C@@H](O)[C@@H]2O)c(=O)n1																				inhibition [32]: 6%
Nc1ccn([C@@H]2O[C@@](CO)(CF)[C@@H](O)[C@H]2F)c(=O)n1	160	> 100000	55	27.9	153	240	9.49	2.69	1.87	31800	7.66	54.3	5.6	1540	3.39	5580	374			
